The values that follow come from ChEMBL document CHEMBL5620345, “Metal binding pharmacophore click-derived discovery of new broad-spectrum metallo-β-lactamase inhibitors” (Eur J Med Chem, 2023).

A short description of assay [1]: Inhibition of recombinant his tagged IMP1 (unknown origin) expressed in Escherichia coli (DE3) cells using FC5 as substrate by microplate reader assay.
Assay [2] in a line: Inhibition of recombinant NDM1 (unknown origin) expressed in Escherichia coli (DE3) cells using FC5 as substrate by microplate reader assay.
Assay [3] in a line: Inhibition of recombinant VIM-1 (unknown origin) expressed in Escherichia coli (DE3) cells using FC5 as substrate by microplate reader assay.
Assay [4] in a line: Inhibition of recombinant his tagged VIM-2 (unknown origin) expressed in Escherichia coli (DE3) cells using FC5 as substrate by microplate reader assay.
The nature of assay [5]: Inhibition of recombinant VIM-5 (unknown origin) expressed in Escherichia coli (DE3) cells using FC5 as substrate by microplate reader assay.
Assay [6] concerns Escherichia coli. In words: Antibacterial activity against Escherichia coli BAA2452 expressing blaNDM-1 clinical isolates assessed as meropenem MIC incubated for 16 to 18 hrs by broth microdilution method. The class given is functional. The settings on record: time 16-18 hrs.
Assay [7] deals with Enterobacterales. Kind of assay: Antibacterial activity against Carbapenem-Resistant Enterobacterales 19 expressing blaNDM-1 clinical isolates assessed as meropenem MIC incubated for 16 to 18 hrs by broth microdilution method. Type of assay: functional. The settings on record: time 16-18 hrs.
For assay [8], the system named is Klebsiella pneumoniae. Kind of assay: Antibacterial activity against Klebsiella pneumoniae BAA2470 expressing blaNDM-1 clinical isolates assessed as meropenem MIC incubated for 16 to 18 hrs by broth microdilution method. Type of assay: functional. Conditions: time 16-18 hrs.
Assay [9] relates to Escherichia coli. In words: Antibacterial activity against Escherichia coli C1580 expressing blaIMP-1 clinical isolates assessed as meropenem MIC incubated for 16 to 18 hrs by broth microdilution method. Type of assay: functional. The settings on record: time 16-18 hrs.
Assay [10] concerns Escherichia coli. In words: Antibacterial activity against Escherichia coli BAA2452 expressing blaNDM-1 clinical isolates assessed as fold potentiation incubated for 16 to 18 hrs by broth microdilution method. Type of assay: functional. The settings on record: time 16-18 hrs.
In assay [11] the test system is Enterobacterales. Kind of assay: Antibacterial activity against Carbapenem-Resistant Enterobacterales 19 expressing blaNDM-1 clinical isolates assessed as fold potentiation incubated for 16 to 18 hrs by broth microdilution method. Type of assay: functional. Conditions: time 16-18 hrs.
Assay [12] relates to Klebsiella pneumoniae. In words: Antibacterial activity against Klebsiella pneumoniae BAA2470 expressing blaNDM-1 clinical isolates assessed as fold potentiation incubated for 16 to 18 hrs by broth microdilution method. The class given is functional. The settings on record: time 16-18 hrs.
Assay [13] relates to Escherichia coli. Kind of assay: Antibacterial activity against Escherichia coli C1580 expressing blaIMP-1 clinical isolates assessed as fold potentiation incubated for 16 to 18 hrs by broth microdilution method. Type of assay: functional. Conditions: time 16-18 hrs.
Assay [14] relates to Escherichia coli. Kind of assay: Antibacterial activity against Escherichia coli C1541 expressing blaVIM-2 clinical isolates assessed as meropenem MIC incubated for 16 to 18 hrs by broth microdilution method. The settings on record: time 16-18 hrs. The class given is functional.
Assay [15] concerns Escherichia coli. In words: Antibacterial activity against Escherichia coli C1541 expressing blaVIM-2 clinical isolates assessed as fold potentiation incubated for 16 to 18 hrs by broth microdilution method. The settings on record: time 16-18 hrs. Type of assay: functional.

Regarding `Cc1ccc(-c2ccc(C(c3cccc(-n4cc(-c5cccc(N)c5)nn4)c3)P(=O)(O)O)cc2)cc1` (centres undefined), the IC50 in assay [1] was 0.43 µM; in assay [2] it was 0.59 µM; in assay [3], 0.66 µM; in assay [4] it was 0.00066 µM; in assay [5], 0.002 µM. The minimal inhibitory concentration (MIC) in assay [6] is 16 µg/mL; in [7], 8 µg/mL; in [8], 64 µg/mL; in assay [9], 2 µg/mL. Also, the “fold change (FC)” value is recorded as 8 in assay [10], 8 in assay [11], >2 in assay [12] and 16 in [13].
With `O=P(O)(O)Cc1ccc(-n2cc(-c3cccc(Cl)c3)nn2)cc1`, the IC50 in assay [1] was > 100 µM; in [2], > 100 µM; in assay [3], 8.99 µM; in [4], 2.44 µM; in assay [5] it was 2.03 µM.
Consider `O=[N+]([O-])c1ccc(Cn2cc(-c3cccc(B(O)O)c3)nn2)cc1`, for which the IC50 is > 100 µM in assay [1]; 48 µM in assay [2]; > 100 µM in assay [3]; 9.76 µM in [4]; 81.1 µM in [5]. Further, the MIC is 64 µg/mL in assay [6]; 32 µg/mL in [7]; > 128 µg/mL in assay [8]; 16 µg/mL in assay [9]; 64 µg/mL in assay [14]. Also, the “fold change (FC)” value in [10], in assay [11] and in assay [13] was 2 throughout.
`O=P(O)(O)Cc1ccc(-n2cc(CNc3ccccc3)nn2)cc1`: the 50% inhibitory concentration (IC50) in [1] was > 100 µM; in [2], > 100 µM; in assay [3], 26.7 µM; in assay [4] it was 13.3 µM; in assay [5] it was 7.43 µM.
With `Cc1cccc(-c2cn(-c3ccc(CP(=O)(O)O)cc3)nn2)c1`, the IC50 was > 100 µM in [1]; 65.5 µM in assay [2]; 11.8 µM in [3]; 2.03 µM in assay [4]; 1.16 µM in [5].
The corresponding values for `CC(C)(C)c1cn(-c2cccc(CP(=O)(O)O)c2)nn1` are 9.5 µM, 27.1 µM, 24.6 µM, 4.44 µM and 0.52 µM.
As for `O=P(O)(O)Cc1cccc(-n2cc(-c3ccccc3Br)nn2)c1`, the half-maximal inhibitory concentration (IC50) in [1] amounted to 1.9 µM; in [2] it was 5.2 µM; in [3] it was 7.16 µM; in [4] it was 0.72 µM; in [5] it was 0.095 µM. The minimal inhibitory concentration (MIC) in assay [6] stood at 32 µg/mL; in assay [7] it was 16 µg/mL; in assay [8], 128 µg/mL; in assay [9] it was 2 µg/mL; in [14], 4 µg/mL. For the same compound, the “fold change (FC)” value in [10] is on record as 4; in assay [11] it was 4; in [12], >1; in assay [13] it was 16; in assay [15] it was 4.
Turning to `NCCOc1ccc(-c2cn(-c3cccc(C(=O)O)c3C(=O)O)nn2)cc1`, the IC50 is 1.83 µM in assay [1]; > 100 µM in [2]; > 100 µM in [3]; 3.69 µM in [4]; > 100 µM in [5]. Besides, the MIC in assay [6] was 64 µg/mL; in [7] it was 64 µg/mL; in assay [8], > 128 µg/mL; in assay [9], 0.25 µg/mL; in [14], 32 µg/mL. The results for the “fold change (FC)” value in assay [10], in [11] and in [13] were 2, 1 and 128, respectively.
As for `O=C(NCc1cn(-c2ccc(CP(=O)(O)O)cc2)nn1)C(F)(F)F`, the IC50 in [1] is > 100 µM; in [2] it was > 100 µM; in assay [3] it was 27.9 µM; in [4], 27.2 µM; in assay [5], 31.8 µM.
For the compound `Nc1ccccc1-c1cn(-c2ccc(CP(=O)(O)O)cc2)nn1`, the IC50 in [1] was > 100 µM; in [2], 16.6 µM; in assay [3], 22.1 µM; in assay [4], 2.48 µM; in assay [5], 2.28 µM.
